Converted amounts (≈) assume the structure as drawn. One block for each compound: values may come before it. Numbered stars: 1 amine (or outer) side, 2 acyl side, 3 side chain; on linkers, the order of the positions; unused ones are H or OH. Bridge positions count the residues as written; N and C are the ends. Square brackets hold non-standard residues; d marks the D form. Peptide text beside a SMILES is read from it. * marks the point of attachment. hTyr(3S-OH,4S-OH,3'-OSO3H) = N[C@H](C(=O)O)[C@H](O)[C@@H](O)c1ccc(O)c(OS(=O)(=O)O)c1; pTerphenylCO(4''-OnC5H11) = CCCCCOc1ccc(-c2ccc(-c3ccc(C(=O)*)cc3)cc2)cc1; Orn(4R-OH,5R-OH) = O=C([C@H](C[C@@H](O)[C@@H](O)N[*:3])N[*:1])[*:2]; hTyr(3S-OH,4S-OH) = N[C@H](C(=O)O)[C@H](O)[C@@H](O)c1ccc(O)cc1; Pro(3S-OH,4S-Me) = C[C@H]1CN[C@H](C(=O)O)[C@H]1O; X1 = CCCCCOc1ccc(-c2cc(-c3ccc(C(=O)*)cc3)no2)cc1; Gln(3R-OH) = NC(=O)C[C@@H](O)[C@H](N)C(=O)O; Hyp = O=C(O)[C@@H]1C[C@@H](O)CN1
Experiments:
[1] = Inhibition of Candida albicans GFA1 using D-Fru6P and L-glutamine as substrate incubated for 30 mins by Elson-Morgan method
[2] = tested on: Candida albicans; test: Antifungal activity against Candida albicans ATCC 10231 by CLSI-based serial dilution method; format: functional
[3] = tested on: Aspergillus fumigatus; test: Antifungal activity against Aspergillus fumigatus clinical isolate 293 infected in Hartley guinea pig model of invasive pulmonary aspergillosis assessed as pig median survival time at 10 mg/kg, sc administered until day 8 starting from day 1 post infection; format: functional, Af293; details: time 8 day
[4] = tested on: Aspergillus fumigatus; test: Antifungal activity against Aspergillus fumigatus clinical isolate 293 infected in Hartley guinea pig model of invasive pulmonary aspergillosis assessed as percent survival of pig at 10 mg/kg, sc administered until day 8 starting from day 1 post infection; format: functional; details: Af293, sc, 192 h, time 8 day
[5] = tested on: Candida albicans; test: Antifungal activity against Candida albicans FP614 by agar dilution method; format: functional
[6] = tested on: Candida parapsilosis; test: Antifungal activity against Candida parakrusei FP586 by agar dilution method; format: functional; details: Lodderomyces parapsilosis
[7] = tested on: Pichia kudriavzevii; test: Antifungal activity against Candida krusei FP585 by agar dilution method; format: functional
[8] = tested on: Candida albicans; test: Antifungal activity against Candida albicans FP615 by agar dilution method; format: functional
[9] = tested on: Candida tropicalis; test: Antifungal activity against Candida tropicalis FP583 by agar dilution method; format: functional
[10] = tested on: Candida albicans; test: Antifungal activity against Candida albicans FP616 by agar dilution method; format: functional
[11] = tested on: Candida albicans; test: Antifungal activity against Candida albicans FP622 by agar dilution method; format: functional
[12] = Elimination half life life in iv dosed human; details: in vivo
[13] = target: Endochitinase A1 (Aspergillus fumigatus, UniProt Q873Y0); test: Inhibition of Aspergillus fumigatus chiA1 (Arg28 to His337) expressed in Pichia pastoris incubated for 70 mins using 4MU-NAc3 as substrate by fluorescence method
Chain of Endochitinase A1 (Q873Y0 whole entry): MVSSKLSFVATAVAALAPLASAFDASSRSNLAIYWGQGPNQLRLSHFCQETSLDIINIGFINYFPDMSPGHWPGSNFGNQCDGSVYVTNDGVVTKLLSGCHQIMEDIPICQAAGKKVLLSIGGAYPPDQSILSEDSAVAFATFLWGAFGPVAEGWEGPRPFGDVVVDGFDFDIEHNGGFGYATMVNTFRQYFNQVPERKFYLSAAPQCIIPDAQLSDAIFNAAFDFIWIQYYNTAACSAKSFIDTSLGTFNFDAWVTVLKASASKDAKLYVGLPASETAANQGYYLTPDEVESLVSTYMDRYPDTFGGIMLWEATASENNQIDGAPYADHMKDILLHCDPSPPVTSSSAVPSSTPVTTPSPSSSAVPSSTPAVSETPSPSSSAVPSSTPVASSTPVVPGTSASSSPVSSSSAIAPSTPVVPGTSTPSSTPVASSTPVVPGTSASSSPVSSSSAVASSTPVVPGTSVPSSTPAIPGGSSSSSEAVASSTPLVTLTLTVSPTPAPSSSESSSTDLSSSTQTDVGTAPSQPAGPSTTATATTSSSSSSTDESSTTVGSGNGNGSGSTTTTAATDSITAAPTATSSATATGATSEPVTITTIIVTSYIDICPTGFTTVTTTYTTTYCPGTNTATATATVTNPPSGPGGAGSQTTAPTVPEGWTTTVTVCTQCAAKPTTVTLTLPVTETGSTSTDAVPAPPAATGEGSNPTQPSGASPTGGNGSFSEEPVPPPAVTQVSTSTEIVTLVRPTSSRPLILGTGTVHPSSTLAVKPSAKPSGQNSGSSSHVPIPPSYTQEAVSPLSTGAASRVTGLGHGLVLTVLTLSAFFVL

[14] = Inhibition of Saccharomyces cerevisiae CTS1 incubated for 70 mins by fluorescence method
[15] = tested on: Candida albicans; test: Antifungal activity against Candida albicans ATCC 26278 incubated for 24 hrs by serial dilution method; format: functional
[16] = tested on: Candida albicans; test: Antifungal activity against Candida albicans ATCC 10261 incubated for 24 hrs by serial dilution method; format: functional
[17] = Inhibition of Candida albicans glucosamine-6-phosphate synthase by Elson-Morgan method
[18] = target: Chitin synthase 2 (Candida albicans, UniProt P30572); test: Inhibition of Chitin synthase 2 in Candida albicans (chs3del::hisG/chs3del::hisG) microsomes using UDP-[U14C]-GlcNac as substrate; parameters: species or system Microsome
Chain of Chitin synthase 2 (P30572 whole entry): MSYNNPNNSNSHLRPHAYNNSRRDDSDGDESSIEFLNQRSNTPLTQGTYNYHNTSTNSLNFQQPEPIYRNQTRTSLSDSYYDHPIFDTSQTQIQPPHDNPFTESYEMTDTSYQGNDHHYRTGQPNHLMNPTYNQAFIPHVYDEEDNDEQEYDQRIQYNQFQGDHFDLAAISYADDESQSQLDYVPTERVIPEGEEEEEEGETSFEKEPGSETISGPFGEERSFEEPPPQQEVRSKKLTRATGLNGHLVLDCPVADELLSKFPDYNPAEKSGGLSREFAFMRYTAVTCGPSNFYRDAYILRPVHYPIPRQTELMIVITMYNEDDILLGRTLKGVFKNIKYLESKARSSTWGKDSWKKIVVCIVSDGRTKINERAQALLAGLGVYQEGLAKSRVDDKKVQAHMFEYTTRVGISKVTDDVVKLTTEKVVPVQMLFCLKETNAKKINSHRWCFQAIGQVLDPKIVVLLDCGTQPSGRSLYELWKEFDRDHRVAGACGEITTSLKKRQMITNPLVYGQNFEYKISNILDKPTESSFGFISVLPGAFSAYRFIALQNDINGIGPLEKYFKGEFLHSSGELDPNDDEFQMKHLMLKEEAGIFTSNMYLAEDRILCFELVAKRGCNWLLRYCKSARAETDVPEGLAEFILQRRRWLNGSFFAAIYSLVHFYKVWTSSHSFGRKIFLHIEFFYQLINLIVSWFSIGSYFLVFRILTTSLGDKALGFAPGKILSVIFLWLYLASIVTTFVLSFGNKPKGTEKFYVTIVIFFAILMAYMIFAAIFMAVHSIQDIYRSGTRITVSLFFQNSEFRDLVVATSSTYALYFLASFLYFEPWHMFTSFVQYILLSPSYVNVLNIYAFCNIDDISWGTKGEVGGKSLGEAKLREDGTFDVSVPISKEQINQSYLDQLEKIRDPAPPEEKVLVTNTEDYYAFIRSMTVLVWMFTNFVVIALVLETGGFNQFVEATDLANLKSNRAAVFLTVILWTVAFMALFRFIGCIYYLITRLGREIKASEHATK

[19] = tested on: Candida albicans; test: Antifungal activity against Candida albicans ATCC 200955 incubated for 48 to 72 hrs by broth microdilution method; format: functional; details: time 48-72 hrs
[20] = tested on: Meyerozyma guilliermondii; test: Antifungal activity against Candida guilliermondii incubated for 48 to 72 hrs by broth microdilution method; format: functional; details: time 48-72 hrs
[21] = tested on: Candida albicans; test: Antifungal activity against Candida albicans ATCC 44373 incubated for 48 to 72 hrs by broth microdilution method; format: functional; details: time 48-72 hrs
[22] = tested on: Candida albicans; test: Antifungal activity against Candida albicans ATCC 38248 incubated for 48 to 72 hrs by broth microdilution method; format: functional; details: time 48-72 hrs
[23] = target: Chitin synthase 1 (Candida albicans, UniProt P23316); test: Inhibition of Chitin synthase 1 in Candida albicans (chs3del::hisG/chs3del::hisG) microsomes using UDP-[U14C]-GlcNac as substrate; parameters: species or system Microsome
Chain of Chitin synthase 1 (P23316 whole entry): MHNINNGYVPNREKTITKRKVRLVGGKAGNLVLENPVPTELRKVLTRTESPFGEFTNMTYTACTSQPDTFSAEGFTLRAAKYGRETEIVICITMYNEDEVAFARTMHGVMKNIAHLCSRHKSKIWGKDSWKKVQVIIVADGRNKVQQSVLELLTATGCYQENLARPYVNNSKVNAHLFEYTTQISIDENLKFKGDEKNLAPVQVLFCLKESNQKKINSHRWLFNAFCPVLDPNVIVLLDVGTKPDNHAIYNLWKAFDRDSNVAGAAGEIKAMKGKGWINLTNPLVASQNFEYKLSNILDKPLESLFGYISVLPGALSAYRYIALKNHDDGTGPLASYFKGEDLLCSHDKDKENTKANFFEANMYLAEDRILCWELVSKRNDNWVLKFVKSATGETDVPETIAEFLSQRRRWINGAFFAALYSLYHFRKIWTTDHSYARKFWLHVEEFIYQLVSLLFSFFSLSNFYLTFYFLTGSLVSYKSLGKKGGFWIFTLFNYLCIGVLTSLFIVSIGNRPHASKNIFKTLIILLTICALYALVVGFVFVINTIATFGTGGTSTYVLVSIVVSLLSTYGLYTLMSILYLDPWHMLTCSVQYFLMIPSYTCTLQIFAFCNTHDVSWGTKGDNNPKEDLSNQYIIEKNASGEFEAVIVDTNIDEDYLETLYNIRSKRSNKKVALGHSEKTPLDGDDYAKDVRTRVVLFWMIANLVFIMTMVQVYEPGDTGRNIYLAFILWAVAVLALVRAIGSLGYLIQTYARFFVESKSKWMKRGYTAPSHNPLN

[24] = tested on: Candida albicans; test: Antifungal activity against Candida albicans ATCC 10231 incubated for 48 to 72 hrs by broth microdilution method; format: functional; details: time 48-72 hrs
[25] = tested on: Pichia kudriavzevii; test: Antifungal activity against Candida krusei incubated for 48 to 72 hrs by broth microdilution method; format: functional; details: time 48-72 hrs
[26] = target: Chitotriosidase-1 (Homo sapiens, UniProt Q13231); test: Inhibition of human chitinase1 incubated for 70 mins using 4MU-NAG2 as substrate by fluorescence method
Chain of Chitotriosidase-1 (Q13231 whole entry): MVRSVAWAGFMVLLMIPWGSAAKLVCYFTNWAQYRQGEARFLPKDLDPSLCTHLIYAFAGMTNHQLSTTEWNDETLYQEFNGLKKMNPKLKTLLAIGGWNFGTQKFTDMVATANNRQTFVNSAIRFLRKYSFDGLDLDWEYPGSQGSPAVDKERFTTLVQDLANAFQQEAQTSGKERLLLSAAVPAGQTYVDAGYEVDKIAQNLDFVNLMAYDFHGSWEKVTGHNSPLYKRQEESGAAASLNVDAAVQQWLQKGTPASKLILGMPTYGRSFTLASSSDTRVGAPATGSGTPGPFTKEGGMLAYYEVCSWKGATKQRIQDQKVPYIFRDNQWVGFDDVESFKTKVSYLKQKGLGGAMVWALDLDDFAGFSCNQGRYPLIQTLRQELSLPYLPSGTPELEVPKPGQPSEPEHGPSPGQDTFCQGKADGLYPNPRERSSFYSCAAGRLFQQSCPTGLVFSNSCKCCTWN

[27] = tested on: Candida albicans; test: Antifungal activity against Candida albicans CY1002 infected in iv dosed ICR mouse administered as single dose measured on day 7; format: functional; details: 168 h, time 7 day
[28] = tested on: Candida albicans; test: Antifungal activity against Candida albicans K1082 by agar incorporation method; format: functional
[29] = Inhibition of Beta-1,3-glucan synthase in Schizosaccharomyces pombe pbr1-8
[30] = tested on: Candida tropicalis; test: Antifungal activity against Candida tropicalis K1155 by agar incorporation method; format: functional
[31] = tested on: Candida albicans; test: Antifungal activity against Candida albicans K1133 by agar incorporation method; format: functional
[32] = Inhibition of Beta-1,3-glucan synthase in Schizosaccharomyces pombe pbr1-6
[33] = tested on: Cyberlindnera jadinii; test: Antifungal activity against Candida utilis K482 by agar incorporation method; format: functional; details: Williopsis jadinii
[34] = tested on: Candida parapsilosis; test: Antifungal activity against Candida parapsilosis K332 by agar incorporation method; format: functional; details: Lodderomyces parapsilosis
[35] = Inhibition of Beta-1,3-glucan synthase in wild type Schizosaccharomyces pombe
[36] = tested on: Candida albicans; test: Antifungal activity against Candida albicans K341 by agar incorporation method; format: functional
[37] = tested on: Pichia kudriavzevii; test: Antifungal activity against Candida krusei K1153 by agar incorporation method; format: functional
[38] = tested on: Meyerozyma guilliermondii; test: Antifungal activity against Candida guilliermondii K334 by agar incorporation method; format: functional
[39] = tested on: Candida tropicalis; test: Antifungal activity against Candida tropicalis K337 by agar incorporation method; format: functional
[40] = tested on: Candida parapsilosis; test: Antifungal activity against Candida parapsilosis K1154 by agar incorporation method; format: functional; details: Lodderomyces parapsilosis
[41] = tested on: Candida albicans; test: Antifungal activity against Candida albicans K335 by agar incorporation method; format: functional

IC50 [1]: > 5000 µM | MIC [2]: 1000 µg/mL (≈ 3480 µM)
SMILES: CC(=O)N[C@@H](CO)[C@@H](O)[C@H](O)[C@H](O)CS(=O)(=O)O

SMILES: COc1cc(C[C@@H](O)[C@@H]2NC(=O)[C@@H]3C[C@@H](O)CN3C(=O)[C@H]([C@@H](C)O)NC(=O)[C@H](NC[C@H]3CC[C@H](c4nnc(-c5ccc(N6CCC(OC)(C7CCCCC7)CC6)cc5)s4)CC3)C[C@@H](O)CNC(=O)[C@@H]3[C@@H](O)[C@@H](C)CN3C(=O)[C@H]([C@H](O)CCNC(CO)CO)NC2=O)ccc1O
Time [3]: 9.5 days | survival at 10 mg/kg [4]: 31.2%

MIC [5]: 0.1 µg/mL (≈ 0.12 µM) | MIC [6]: 0.1 µg/mL (≈ 0.12 µM) | MIC [7]: 0.1 µg/mL (≈ 0.12 µM) | MIC [8]: 0.1 µg/mL (≈ 0.12 µM) | MIC [9]: 0.1 µg/mL (≈ 0.12 µM) | MIC [10]: 0.1 µg/mL (≈ 0.12 µM) | MIC [11]: 0.1 µg/mL (≈ 0.12 µM)
SMILES: CCC/C=C/C=C/[C@@H](O)C/C=C/C=C/C(=O)O[C@H]1[C@H](O[C@@H]2O[C@H](COC(=O)/C=C/C=C\CCCCC)[C@H](O)[C@H](O)[C@H]2O)[C@@H](CO)O[C@]2(OCc3cc(O)cc(O)c32)[C@@H]1O

SMILES: CCCCCOc1ccc(-c2cc(-c3ccc(C(=O)N[C@H]4C[C@@H](O)[C@@H](O)NC(=O)[C@@H]5[C@@H](O)[C@@H](C)CN5C(=O)[C@H]([C@H](O)CC(N)=O)NC(=O)[C@H]([C@H](O)[C@@H](O)c5ccc(O)c(OS(=O)(=O)O)c5)NC(=O)[C@@H]5C[C@@H](O)CN5C(=O)[C@H]([C@@H](C)O)NC4=O)cc3)no2)cc1 [MICAFUNGIN] (X1-[Orn(4R-OH,5R-OH)]T[Hyp][hTyr(3S-OH,4S-OH,3'-OSO3H)][Gln(3R-OH)][Pro(3S-OH,4S-Me)]; lactam 1-C)
half-life [12]: 10 h

IC50 [13]: 9.2 µM | IC50 [14]: 2.4 µM
SMILES: Cc1ccc(OCC(O)CNC2Cc3ccccc3C2)cc1C (centres undefined)

MIC [15]: 5000 µg/mL (≈ 19100 µM) | MIC [16]: 5000 µg/mL (≈ 19100 µM) | IC50 [17]: 230 µM
SMILES: N[C@@H](CO)[C@@H](O)[C@H](O)[C@H](O)COP(=O)(O)O

IC50 [18]: 22 µM | MIC [19]: 1.56 µg/mL | MIC [20]: 6.25 µg/mL | MIC [21]: 1.56 µg/mL | MIC [22]: 1.56 µg/mL | IC50 [23]: 22 µM | MIC [24]: 1.56 µg/mL | MIC [25]: 1.56 µg/mL
SMILES: COc1ccc2c(Cc3ccc(C(C)(C)C)cc3)c3[n+](cc2c1OC)CCc1cc2c(cc1-3)OCO2

IC50 [13]: 2.6 µM | IC50 [14]: 0.5 µM | IC50 [26]: > 100 µM
SMILES: COc1ccccc1-c1noc2nc(C)[nH]c(=O)c12

SMILES: CCCCCOc1ccc(-c2ccc(-c3ccc(C(=O)N[C@H]4C[C@@H](O)[C@@H](O)NC(=O)[C@@H]5[C@@H](O)[C@@H](C)CN5C(=O)[C@H]([C@@H](C)O)NC(=O)[C@H]([C@H](O)[C@@H](O)c5ccc(O)cc5)NC(=O)[C@@H]5C[C@@H](O)CN5C(=O)[C@H]([C@@H](C)O)NC4=O)cc3)cc2)cc1 [ANIDULAFUNGIN] ({pTerphenylCO(4''-OnC5H11)}-[Orn(4R-OH,5R-OH)]T[Hyp][hTyr(3S-OH,4S-OH)]T[Pro(3S-OH,4S-Me)]; lactam 1-C)
ED50 [27]: 0.22 mg/kg | half-life [12]: 24 h

MIC [28]: 0.1 µg/mL (≈ 0.111 µM) | IC50 [29]: > 250 µg/mL | MIC [30]: 0.1 µg/mL (≈ 0.111 µM) | MIC [31]: 0.1 µg/mL (≈ 0.111 µM) | IC50 [32]: > 250 µg/mL | MIC [33]: 0.1 µg/mL (≈ 0.111 µM) | MIC [34]: 0.1 µg/mL (≈ 0.111 µM) | IC50 [35]: 0.02 µg/mL (≈ 0.0222 µM) | MIC [36]: 0.1 µg/mL (≈ 0.111 µM) | MIC [37]: 0.1 µg/mL (≈ 0.111 µM) | MIC [38]: 0.1 µg/mL (≈ 0.111 µM) | MIC [39]: 0.1 µg/mL (≈ 0.111 µM) | MIC [40]: 0.1 µg/mL (≈ 0.111 µM) | MIC [41]: 0.1 µg/mL (≈ 0.111 µM)
SMILES: CCC(O)/C=C/C=C\C=C\C(=O)OC[C@H]1O[C@@H](O[C@H]2[C@H](OC(=O)/C=C/C=C/C[C@H](O)/C(C)=C/C=C/CC[C@@H](C)CC)[C@@H](O)[C@@]3(OCc4cc(O)cc(O)c43)O[C@@H]2CO)[C@H](O)[C@@H](O)[C@H]1O (some centres undefined)

Reference: ChEMBL document CHEMBL4715849, “Recent Progress in the Discovery of Antifungal Agents Targeting the Cell Wall” (J Med Chem, 2020)
